Columns and labels:
[1] = molecular target: Mu-type opioid receptor (Homo sapiens, UniProt P35372); test: biochemical; type: functional
[2] = molecular target: T1, Equilibrative nucleoside transporter 1 (Homo sapiens, UniProt Q99808)
T1 sequence (Q99808 whole entry): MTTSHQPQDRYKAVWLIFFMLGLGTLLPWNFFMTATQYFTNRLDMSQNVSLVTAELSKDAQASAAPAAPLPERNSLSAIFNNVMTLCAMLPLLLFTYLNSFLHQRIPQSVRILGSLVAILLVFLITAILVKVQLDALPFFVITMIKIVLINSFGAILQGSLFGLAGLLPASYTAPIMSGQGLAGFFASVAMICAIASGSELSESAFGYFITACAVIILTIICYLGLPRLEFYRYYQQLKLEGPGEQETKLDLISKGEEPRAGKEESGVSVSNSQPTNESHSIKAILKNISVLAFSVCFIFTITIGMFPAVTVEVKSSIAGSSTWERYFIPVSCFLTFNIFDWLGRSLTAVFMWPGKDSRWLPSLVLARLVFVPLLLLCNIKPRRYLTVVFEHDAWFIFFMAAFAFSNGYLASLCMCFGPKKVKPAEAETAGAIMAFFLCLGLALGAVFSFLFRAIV

[3] = molecular target: T2, B2 bradykinin receptor (Homo sapiens, UniProt P30411)
T2 sequence (P30411 whole entry): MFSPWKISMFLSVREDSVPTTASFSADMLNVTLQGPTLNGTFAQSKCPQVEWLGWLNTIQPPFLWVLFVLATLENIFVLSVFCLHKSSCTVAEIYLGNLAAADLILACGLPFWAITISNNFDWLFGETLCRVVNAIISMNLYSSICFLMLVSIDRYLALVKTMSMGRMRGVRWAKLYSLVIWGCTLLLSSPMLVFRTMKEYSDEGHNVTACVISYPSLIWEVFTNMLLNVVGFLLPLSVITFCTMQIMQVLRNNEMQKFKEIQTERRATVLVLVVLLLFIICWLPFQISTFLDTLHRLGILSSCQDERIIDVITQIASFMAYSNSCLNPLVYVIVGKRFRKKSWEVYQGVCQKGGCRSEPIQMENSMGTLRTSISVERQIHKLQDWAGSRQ

[4] = molecular target: T3, Amine oxidase [flavin-containing] A (Homo sapiens, UniProt P21397); type: functional
T3 sequence (P21397 whole entry): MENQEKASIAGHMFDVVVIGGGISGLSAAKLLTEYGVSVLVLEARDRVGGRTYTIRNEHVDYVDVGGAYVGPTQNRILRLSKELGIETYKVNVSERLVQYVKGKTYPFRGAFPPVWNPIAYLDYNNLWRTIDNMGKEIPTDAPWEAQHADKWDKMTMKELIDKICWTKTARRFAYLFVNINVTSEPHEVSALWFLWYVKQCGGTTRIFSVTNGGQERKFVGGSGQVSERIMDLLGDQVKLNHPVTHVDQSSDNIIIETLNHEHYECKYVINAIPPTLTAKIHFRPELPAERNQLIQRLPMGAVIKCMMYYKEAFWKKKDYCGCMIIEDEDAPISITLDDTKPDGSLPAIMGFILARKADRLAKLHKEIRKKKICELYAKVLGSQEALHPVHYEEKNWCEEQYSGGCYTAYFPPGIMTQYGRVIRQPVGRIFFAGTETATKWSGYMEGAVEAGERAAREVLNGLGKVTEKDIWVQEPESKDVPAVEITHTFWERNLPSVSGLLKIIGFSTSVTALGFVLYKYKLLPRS

[5] = molecular target: T4, 5-hydroxytryptamine receptor 1A (Homo sapiens, UniProt P08908); type: functional, cell-based
T4 sequence (P08908 whole entry): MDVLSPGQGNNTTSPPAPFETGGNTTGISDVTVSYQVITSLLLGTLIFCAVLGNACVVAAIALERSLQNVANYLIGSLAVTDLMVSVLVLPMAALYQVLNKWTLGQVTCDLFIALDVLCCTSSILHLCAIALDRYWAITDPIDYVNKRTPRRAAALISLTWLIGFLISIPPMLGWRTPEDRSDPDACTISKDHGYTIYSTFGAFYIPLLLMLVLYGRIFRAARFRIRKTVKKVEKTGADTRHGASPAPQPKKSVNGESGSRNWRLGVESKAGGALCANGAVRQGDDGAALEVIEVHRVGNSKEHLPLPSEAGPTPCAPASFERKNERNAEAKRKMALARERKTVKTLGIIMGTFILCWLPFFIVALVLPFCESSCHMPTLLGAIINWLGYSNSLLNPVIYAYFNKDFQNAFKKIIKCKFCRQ

[6] = molecular target: T4, 5-hydroxytryptamine receptor 1A; type: functional, cell-based; remark: listed apart in the source
[7] = molecular target: T5, Alpha-2A adrenergic receptor (Homo sapiens, UniProt P08913); type: functional, cell-based
T5 sequence (P08913 whole entry): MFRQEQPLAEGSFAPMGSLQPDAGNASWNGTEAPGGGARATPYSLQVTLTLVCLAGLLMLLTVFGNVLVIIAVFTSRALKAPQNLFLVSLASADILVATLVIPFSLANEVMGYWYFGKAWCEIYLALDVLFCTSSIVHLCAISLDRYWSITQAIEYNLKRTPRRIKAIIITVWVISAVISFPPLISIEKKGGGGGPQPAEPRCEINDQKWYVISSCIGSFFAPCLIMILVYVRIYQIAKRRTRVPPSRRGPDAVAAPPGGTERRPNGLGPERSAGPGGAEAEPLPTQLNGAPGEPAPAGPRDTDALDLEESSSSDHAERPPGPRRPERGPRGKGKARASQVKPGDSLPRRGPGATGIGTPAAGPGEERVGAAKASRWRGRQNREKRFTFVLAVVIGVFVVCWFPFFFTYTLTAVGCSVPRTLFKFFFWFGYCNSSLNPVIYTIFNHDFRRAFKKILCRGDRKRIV

[8] = molecular target: Histamine H2 receptor (Homo sapiens, UniProt P25021); type: functional, cell-based
[9] = molecular target: T6, Thromboxane A2 receptor (Homo sapiens, UniProt P21731)
T6 sequence (P21731 whole entry): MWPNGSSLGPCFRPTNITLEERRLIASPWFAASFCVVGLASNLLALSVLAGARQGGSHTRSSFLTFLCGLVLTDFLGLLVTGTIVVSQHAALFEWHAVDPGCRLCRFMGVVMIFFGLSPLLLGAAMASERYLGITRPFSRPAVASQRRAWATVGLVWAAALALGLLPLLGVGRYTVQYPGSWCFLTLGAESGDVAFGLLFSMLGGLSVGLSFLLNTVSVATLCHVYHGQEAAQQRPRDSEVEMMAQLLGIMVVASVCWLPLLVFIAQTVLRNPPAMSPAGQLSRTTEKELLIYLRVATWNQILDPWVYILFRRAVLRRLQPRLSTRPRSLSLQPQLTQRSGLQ

[10] = molecular target: Histamine H3 receptor (Homo sapiens, UniProt Q9Y5N1)
[11] = molecular target: Cannabinoid receptor 1 (Homo sapiens, UniProt P21554); type: functional, cell-based
Also: assay procedure not described here.

Sequence of Cannabinoid receptor 1 (P21554 whole entry): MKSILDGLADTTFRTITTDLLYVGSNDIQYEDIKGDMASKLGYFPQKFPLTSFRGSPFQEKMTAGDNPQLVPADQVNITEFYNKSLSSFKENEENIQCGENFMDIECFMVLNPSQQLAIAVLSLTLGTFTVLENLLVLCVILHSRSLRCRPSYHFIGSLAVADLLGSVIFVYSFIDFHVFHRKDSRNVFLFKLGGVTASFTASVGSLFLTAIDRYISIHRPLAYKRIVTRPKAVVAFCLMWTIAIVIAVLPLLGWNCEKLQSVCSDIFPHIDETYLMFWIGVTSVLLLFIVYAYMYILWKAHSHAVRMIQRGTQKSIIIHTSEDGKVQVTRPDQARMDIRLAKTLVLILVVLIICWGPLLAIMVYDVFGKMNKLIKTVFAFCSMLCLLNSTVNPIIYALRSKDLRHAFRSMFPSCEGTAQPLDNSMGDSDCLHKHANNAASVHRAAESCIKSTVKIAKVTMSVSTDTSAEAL
Sequence of Histamine H3 receptor (Q9Y5N1 whole entry): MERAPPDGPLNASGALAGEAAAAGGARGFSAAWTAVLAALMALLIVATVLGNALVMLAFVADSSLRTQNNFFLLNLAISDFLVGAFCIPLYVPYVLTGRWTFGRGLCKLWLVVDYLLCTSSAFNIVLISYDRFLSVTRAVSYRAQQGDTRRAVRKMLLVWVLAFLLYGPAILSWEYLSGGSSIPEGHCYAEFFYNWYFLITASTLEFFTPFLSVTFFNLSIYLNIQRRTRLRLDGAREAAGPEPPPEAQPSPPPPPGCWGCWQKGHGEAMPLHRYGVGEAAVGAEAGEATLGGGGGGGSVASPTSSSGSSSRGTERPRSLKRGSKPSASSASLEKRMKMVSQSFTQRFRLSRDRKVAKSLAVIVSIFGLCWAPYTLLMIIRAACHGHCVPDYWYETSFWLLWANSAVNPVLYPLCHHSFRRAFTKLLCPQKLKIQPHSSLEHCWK
Sequence of Mu-type opioid receptor (P35372 whole entry): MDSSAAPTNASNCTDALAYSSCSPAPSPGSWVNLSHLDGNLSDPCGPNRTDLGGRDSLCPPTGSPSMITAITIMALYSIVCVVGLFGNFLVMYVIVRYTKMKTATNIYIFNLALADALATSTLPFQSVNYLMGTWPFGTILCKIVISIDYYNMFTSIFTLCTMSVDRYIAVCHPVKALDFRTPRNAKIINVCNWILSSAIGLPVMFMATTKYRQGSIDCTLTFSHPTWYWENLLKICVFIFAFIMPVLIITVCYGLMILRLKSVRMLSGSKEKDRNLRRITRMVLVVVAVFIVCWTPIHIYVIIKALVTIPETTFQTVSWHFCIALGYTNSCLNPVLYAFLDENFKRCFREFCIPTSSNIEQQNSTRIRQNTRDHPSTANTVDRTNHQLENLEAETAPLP
Sequence of Histamine H2 receptor (P25021 whole entry): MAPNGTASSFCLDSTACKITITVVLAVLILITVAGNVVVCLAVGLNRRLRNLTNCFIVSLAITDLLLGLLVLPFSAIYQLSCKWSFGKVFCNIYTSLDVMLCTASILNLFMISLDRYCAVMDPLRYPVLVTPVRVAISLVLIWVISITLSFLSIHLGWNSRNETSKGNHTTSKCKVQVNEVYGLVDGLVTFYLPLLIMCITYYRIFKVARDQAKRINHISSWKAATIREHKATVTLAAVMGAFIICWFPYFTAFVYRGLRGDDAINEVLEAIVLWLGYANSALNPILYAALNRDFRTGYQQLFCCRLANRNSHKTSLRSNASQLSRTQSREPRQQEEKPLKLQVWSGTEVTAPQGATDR

Row | Structure (SMILES) | AC50 [1] [µM] | AC50 [2] [µM] | AC50 [3] [µM] | AC50 [4] [µM] | AC50 [5] [µM] | AC50 [6] [µM] | AC50 [7] [µM] | AC50 [8] [µM] | AC50 [9] [µM] | AC50 [10] [µM] | AC50 [11] [µM]
1 | O=C(O)CCCCCCCC(=O)O [AZELAIC ACID] | > 30 | > 10 | > 10 | > 10 | > 10 | > 10 | > 10 | > 30 | > 10 |  | 
2 | C=CCC1(CC(C)C)C(=O)NC(=O)NC1=O [BUTALBITAL] | > 30 | > 10 | > 10 | > 30 | > 10 | > 10 | > 10 | > 30 | > 10 |  | 
3 | O=C(O)C1=C(CSc2nnnn2CS(=O)(=O)O)CS[C@@H]2[C@H](NC(=O)[C@H](O)c3ccccc3)C(=O)N12 [CEFONICID] | > 30 | > 30 | > 30 | > 30 |  | > 30 | > 30 | > 30 | > 30 | > 30 | 
4 | COc1ccc2c3c1O[C@H]1[C@@H](O)C=C[C@H]4[C@@H](C2)N(C)CC[C@@]341 [CODEINE] |  | > 30 | > 30 | > 10 | > 10 | > 10 | > 10 | > 10 | > 30 | > 10 | > 30
5 | CCCCc1ncc(/C=C(\Cc2cccs2)C(=O)O)n1Cc1ccc(C(=O)O)cc1 [EPROSARTAN] |  | > 10 | > 30 | > 10 | > 10 | > 10 | > 10 | > 10 | > 10 | > 10 | > 30
6 | C[C@]1(O)CC[C@H]2[C@@H]3CCC4=CC(=O)CC[C@]4(C)[C@@]3(F)[C@@H](O)C[C@@]21C [FLUOXYMESTERONE] | > 30 | > 10 | > 10 | > 30 | > 10 | > 10 | > 10 | > 30 | > 10 |  | 
7 | Cc1ccc(S(=O)(=O)NC(=O)NN2CC3CCCC3C2)cc1 (configuration not stated) [GLICLAZIDE] | > 30 | > 10 | > 10 | > 30 | > 10 | > 10 | > 10 | > 30 | > 10 |  | 
8 | CC(C(=O)O)c1ccc(N2Cc3ccccc3C2=O)cc1 (configuration not stated) [INDOPROFEN] | > 30 | > 30 | > 30 | > 30 |  | > 30 | > 30 | > 30 | > 30 | > 30 | 
9 | CO[C@@H]1[C@@H](O[C@@H]2O[C@H](C)[C@@H](O[C@H]3C[C@@](C)(O)[C@@H](OC(=O)CC(C)C)[C@H](C)O3)[C@H](N(C)C)[C@H]2O)[C@@H](CC=O)C[C@@H](C)[C@@H](O)/C=C/C=C/C[C@@H](C)OC(=O)C[C@H]1OC(C)=O [JOSAMYCIN] | > 30 | > 10 | > 10 | > 10 | > 10 | > 10 | > 10 | > 10 | > 10 |  | 
10 | COC(=O)C1=C(C)NC(C)=C(C(=O)OC(C)(C)CN(C)CCC(c2ccccc2)c2ccccc2)C1c1cccc([N+](=O)[O-])c1 (configuration not stated) [LERCANIDIPINE] | > 30 | > 30 | > 30 | > 30 | > 30 | > 30 | > 30 | > 30 | > 30 |  | 
11 | CC(Oc1c(Cl)cccc1Cl)C1=NCCN1 (configuration not stated) [LOFEXIDINE] | > 30 | > 30 | > 30 | > 30 |  | 1.1 |  | > 30 | > 30 | > 30 | 
12 | CC(C)=CCC/C(C)=C/C=C/C(C)=C/C=C/C(C)=C/C=C/C=C(C)/C=C/C=C(C)/C=C/C=C(\C)CCC=C(C)C [LYCOPENE] | > 30 | > 30 | > 30 | > 30 |  | > 30 | > 30 | > 30 | > 30 | > 30 | 
13 | O=C(NCCN1CCOCC1)c1ccc(Cl)cc1 [MOCLOBEMIDE] | > 30 | > 10 | > 10 |  | > 10 | > 10 | > 10 | > 10 | > 10 |  | 
14 | CCCc1nc(C(C)(C)O)c(C(=O)OCc2oc(=O)oc2C)n1Cc1ccc(-c2ccccc2-c2nnn[nH]2)cc1 [OLMESARTAN MEDOXOMIL] |  | > 50 | > 30 | > 10 | > 10 | > 10 | > 10 | > 10 | > 50 |  | > 30
15 | CN1C(=O)C(O)N=C(c2ccccc2)c2cc(Cl)ccc21 (configuration not stated) [TEMAZEPAM] |  | > 30 | > 30 | > 10 | > 10 | > 10 | > 10 | > 10 | > 30 | > 10 | > 30
16 | C/C(O)=C(\C#N)C(=O)Nc1ccc(C(F)(F)F)cc1 [TERIFLUNOMIDE] |  | > 30 |  | 4.9 | > 30 | > 30 | > 30 |  |  | > 30 | > 30
17 | CN1C(=O)OC(C)(C)C1=O [TRIMETHADIONE] |  | > 10 | > 10 | > 10 |  | > 10 | > 10 | > 10 | > 10 | > 10 | > 30
